Measured values published in ChEMBL document CHEMBL1148941, “A new glucosyl feruloyl quinic acid as a potential marker for roots and rhizomes of goldenseal, Hydrastis canadensis” (2004).

Tested on: Staphylococcus aureus
Assay: Antimicrobial activity against methicillin-resistant Staphylococcus aureus 1126 after 24 hrs
Format: functional

Row | Structure (SMILES) | MIC
1 | COc1cc(/C=C/C(=O)O[C@@H]2C[C@](O)(C(=O)O)C[C@@H](O)[C@H]2O)ccc1O[C@@H]1O[C@H](CO)[C@@H](O)[C@H](O)[C@H]1O | > 1000 µg/mL
2 | COc1ccc2cc3[n+](cc2c1OC)CCc1cc2c(cc1-3)OCO2.[Cl-] [BERBERINE CHLORIDE] | 60 µg/mL
